Among the data in patent publication US10000479B2, “Compounds and their methods of use” (AGIOS PHARMACEUTICALS, INC., priority 2014, dated 2018) are IC50 values, retold here.

SMILES strings stand for the structures.

This test deals with T1, glutaminase (GAC) (Homo sapiens, UniProt O94925).
T1 sequence (O94925 55-598 isoform O94925-3 limits assumed): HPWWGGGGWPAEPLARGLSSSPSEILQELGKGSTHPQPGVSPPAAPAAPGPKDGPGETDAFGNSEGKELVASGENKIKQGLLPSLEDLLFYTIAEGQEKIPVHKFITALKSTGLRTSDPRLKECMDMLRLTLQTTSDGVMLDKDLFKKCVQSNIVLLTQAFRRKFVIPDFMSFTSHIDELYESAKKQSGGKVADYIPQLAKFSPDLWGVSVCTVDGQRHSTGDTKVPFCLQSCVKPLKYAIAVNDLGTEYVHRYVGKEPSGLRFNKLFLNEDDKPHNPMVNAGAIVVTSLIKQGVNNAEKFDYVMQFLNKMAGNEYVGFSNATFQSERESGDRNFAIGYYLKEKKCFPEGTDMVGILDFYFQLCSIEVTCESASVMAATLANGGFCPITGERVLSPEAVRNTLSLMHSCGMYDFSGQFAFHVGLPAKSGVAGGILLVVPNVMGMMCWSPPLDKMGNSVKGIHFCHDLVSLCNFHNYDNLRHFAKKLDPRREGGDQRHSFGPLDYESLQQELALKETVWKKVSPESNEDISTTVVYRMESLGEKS
As to the kind of experiment: glutaminase coupled endpoint assay (Example A). As to conditions: inhibition of glutaminase; assay of Example A or Example B. The format is biochemical. The procedure:
In this example, the enzymatic activity of glutaminase is measured through a coupled endpoint assay. Glutamine and phosphate are supplied to GAC at a concentration equal to Km and AC50, respectively, and GAC concentration is adjusted to give a linear reaction for 60 minutes. The glutamate produced is converted to 2-OG by a kinetic excess of glutamate dehydrogenase. This second step is configured for 2× Km for NAD, since excess NAD is inhibitory. However, a kinetic excess of the third coupling enzyme, diaphorase, recycles NAD from NADH to keep the NAD concentration constant during the timecourse of the assay. Diaphorase, also supplied in kinetic excess, oxidizes NADH produced by GDH back to NAD with the concomitant reduction of rezasurin to the highly fluorescent resorufin. Resorufin in measured after the assay is stopped with SDS by Ex544/Em590. A reduction in the signal indicates inhibition of some component of the coupled enzyme system. Prospective hits are counterscreened against GDH/diaphorase alone to remove hits to the coupling enzyme system in a second assay.
2. Buffers • 2× Buffer (300 mM NaCl, 100 mM HEPES pH 8.5, 0.1% BSA, 0.5 mM EDTA, 100 mM sodium phosphate pH 8.5) • 5× Substrate Mix (1× Buffer final concentration, with 13 mM glutamine, 100 μM resazurin, 50 μg/ml diaphorase) • 1.2× Enzyme Mix (1× Buffer final concentration, with 0.875 μg/ml GAC, 1.56 mM NAD, 6.25 units/ml GDH) • Stop Mix (6% SDS in ddH20) Reaction Procedure • 1. Add 1 μl compound in 100% DMSO • 2. Add 40 μl of Enzyme Mix and incubate for 60 minute at room temperature • 3. Add 10 μl of Substrate Mix to start reaction • 4. Stop reaction with 25 μl of 6% SDS and read Ex544 Em 590
A compound described herein may be tested for its ability to inhibit glutaminase, e.g., by an assay as described in the Examples. For simplicity, the inhibition activity of these compounds is represented as an IC50 tested in an assay of Example A or Example B in Table 1. As shown, “A” refers to an inhibitor of glutaminase with an IC50<100 nM. “B” refers to inhibitor of glutaminase with an IC50 between 100 nM and 500 nM. “C” refers to inhibitor of glutaminase with an IC50 between 500 nM and 1000 nM. “D” refers to inhibitor of glutaminase with an IC50 between 1 μM and 2 μM. “E” refers to inhibitor of glutaminase with an IC50 between 2 μM and 10 μM. “N/A” refers to compounds wherein the IC50 is unavailable.
In the case of `O=C(Cc1ccccn1)Nc1ccc([C@@H]2CCC[C@@H](c3ccc(NC(=O)Cc4ccccn4)nn3)C2)nn1` (racemic) [Compound 14, Trans-(rac)-N,N′-(6,6′-(cyclohexane-1,3-diyl)bis(pyridazine-6,3-diyl))bis(2-(pyridin-2-yl)acetamide)], the IC50 – broadly, the concentration at which inhibition is half-maximal – was less than 100 nM.

With `CC(=O)Nc1ccc([C@H]2CCC[C@H](c3ccc(NC(C)=O)nn3)C2)nn1` (racemic) [Compound 41, Trans-(rac)-N,N′-(6,6′-(cyclohexane-1,3-diyl)bis(pyridazine-6,3-diyl))diacetamide], the IC50 is 2000 to 10000 nM.

The molecule `O=C(Cc1ccc(OC(F)(F)F)cc1)Nc1ccc([C@H]2CCC[C@H](c3ccc(NC(=O)Cc4ccc(OC(F)(F)F)cc4)nn3)C2)nn1` (racemic) [Compound 75, Trans-(rac)-N,N′-(6,6′-(cyclohexane-1,3-diyl)bis(pyridazine-6,3-diyl))bis(2-(4-(trifluoromethoxy)phenyl)acetamide)] gave an IC50 of 2000 to 10000 nM.

`O=C(Cc1ccccc1)Nc1ccc([C@@H]2CCC[C@H](c3ccc(NC(=O)Cc4ccccc4)nn3)C2)nn1` [Compound 10, N,N′-(6,6′-((1R,3S)-cyclohexane-1,3-diyl)bis(pyridazine-6,3-diyl))bis(2-phenylacetamide)]: the IC50 is less than 100 nM.

The molecule `O=C(Cc1ccccn1)Nc1ccc([C@@H]2CCC[C@H](c3ccc(NC(=O)Cc4ccccn4)nn3)C2)nn1` [Compound 20, N,N′-(6,6′-((1R,3S)-Cyclohexane-1,3-diyl)bis(pyridazine-6,3-diyl))bis(2-(pyridin-2-yl)acetamide)] registered an IC50 of less than 100 nM.

In turn, `CCCC(=O)Nc1ccc([C@@H]2CCC[C@H](c3ccc(NC(=O)CCC)nn3)C2)nn1` [Compound 37, N,N′-(6,6′-((1R,3S)-Cyclohexane-1,3-diyl)bis(pyridazine-6,3-diyl))dibutyramide] returned an IC50 of less than 100 nM.

The molecule `CC(C)C(=O)Nc1ccc([C@@H]2CCC[C@H](c3ccc(NC(=O)C(C)C)nn3)C2)nn1` [Compound 98, N,N′-(6,6′-((1R,3S)-Cyclohexane-1,3-diyl)bis(pyridazine-6,3-diyl))bis(2-methylpropanamide)] had an IC50 of 100 to 500 nM.

In turn, `CC(=O)Nc1ccc([C@@H]2CCC[C@H](c3ccc(NC(C)=O)nn3)C2)nn1` [Compound 99, N,N′-(6,6′-((1R,3S)-Cyclohexane-1,3-diyl)bis(pyridazine-6,3-diyl))diacetamide] came in with an IC50 of less than 100 nM.

In the case of `CCC(=O)Nc1ccc([C@@H]2CCC[C@H](c3ccc(NC(=O)CC)nn3)C2)nn1` [Compound 152, N,N′-(6,6′-((1R,3S)-Cyclohexane-1,3-diyl)bis(pyridazine-6,3-diyl))dipropionamide], the IC50 is less than 100 nM.

Regarding `O=C(Cc1ccccn1)Nc1ccc(C2CCC(c3ccc(NC(=O)Cc4ccccn4)nn3)C2)nn1` (stereo not shown) [Compound 175, N, N′-(6,6′-(Cyclopentane-1,3-diyl)bis(pyridazine-6,3-diyl))bis(2-(pyridin-2-yl)acetamide)], the IC50 is less than 100 nM.

`O=C(Nc1ccc([C@@H]2CCC[C@H](c3ccc(NC(=O)OCc4ccccc4)nn3)C2)nn1)OCc1ccccc1` [Compound 176, Dibenzyl (6,6′-((1R,3S)-cyclohexane-1,3-diyl)bis(pyridazine-6,3-diyl))dicarbamate] gave an IC50 of less than 100 nM.

Molecule `O=C(Cc1cccc(OC(F)(F)F)c1)Nc1ccc([C@@H]2CCC[C@H](c3ccc(NC(=O)Cc4cccc(OC(F)(F)F)c4)nn3)C2)nn1` [Compound 180] had an IC50 of 100 to 500 nM.

For `O=C(Cc1ccccc1)Nc1ccc([C@H]2CCC[C@@H](c3nnc(NC(=O)Cc4ccccc4)s3)C2)nn1` [Compound 291, 2-Phenyl-N-(6-((1S,3R)-3-(5-(2-phenylacetamido)-1,3,4-thiadiazol-2-yl)cyclohexyl)pyridazin-3-yl)acetamide], the IC50 was less than 100 nM.
